Marks after values point to notes of the source that are not given here.
Assay: Measurement of logP values by HPLC on reversed phase columns (EEC directive 79/831 Annex V.A8)
Format: physicochemical
Conditions: pH 2.7

Row | SMILES | logP | chromatographic logP
1 | CCCC(C)NC(=O)c1cc(-c2ncnc(Nc3ccc(F)c(Cl)c3)n2)ccn1 (stereo not shown) [B200] | 4.64 | 
2 | CC(C)N(C)C(=O)c1cc(-c2ncnc(Nc3ccc(F)c(Cl)c3)n2)ccn1 [B208] | 3.02 | 
3 | COCC(C1CC1)N(C)C(=O)c1cc(-c2ncnc(Nc3ccc(F)c(Cl)c3)n2)ccn1 (stereo not shown) [B210] | 3.33 | 
4 | CSc1cccc(Nc2ncnc(-c3ccnc(C(=O)N4CCCC4)c3)n2)c1 [B211] | 2.82 | 
5 | COCC(C)NC(=O)c1cc(-c2ncnc(Nc3cccc(SC)c3)n2)ccn1 (stereo not shown) [B212] | 3.31 | 
6 | CSc1cccc(Nc2ncnc(-c3ccnc(C(=O)NC4CC4)c3)n2)c1 [B213] | 3.15 | 
7 | COCCNC(=O)c1cc(-c2ncnc(Nc3cccc(SC)c3)n2)ccn1 [B214] | 2.92 | 
8 | CSc1cccc(Nc2ncnc(-c3ccnc(C(=O)NCCCN4CCCCCC4=O)c3)n2)c1 [B215] | 3.02 | 
9 | CCC(COC)NC(=O)c1cc(-c2ncnc(Nc3cccc(SC)c3)n2)ccn1 (stereo not shown) [B216] | 3.69 | 
10 | CSc1cccc(Nc2ncnc(-c3ccnc(C(=O)NC(C)C)c3)n2)c1 [B217] | 3.53 | 
11 | CCC(C)NC(=O)c1cc(-c2ncnc(Nc3cccc(SC)c3)n2)ccn1 (stereo not shown) [B218] | 3.94 | 
12 | CSc1cccc(Nc2ncnc(-c3ccnc(C(=O)NCC4CC4)c3)n2)c1 [B219] | 3.64 | 
13 | CSc1cccc(Nc2ncnc(-c3ccnc(C(=O)NC4CCC4)c3)n2)c1 [B220] | 3.73 | 
14 | CCCC(C)NC(=O)c1cc(-c2ncnc(Nc3cccc(SC)c3)n2)ccn1 (stereo not shown) [B221] | 4.44 | 
15 | Cc1ccc(Nc2ncnc(-c3ccnc(C(=O)N4CCCC4)c3)n2)cc1Cl [B224] | 3.26 | 
16 | Cc1ccc(Nc2ncnc(-c3ccnc(C(=O)NCCCN4CCCCCC4=O)c3)n2)cc1Cl [B228] | 3.44 | 
17 | CCC(COC)NC(=O)c1cc(-c2ncnc(Nc3ccc(C)c(Cl)c3)n2)ccn1 (stereo not shown) [B229] | 4.24 | 
18 | Cc1ccc(Nc2ncnc(-c3ccnc(C(=O)NC(C)C)c3)n2)cc1Cl [B230] | 4.04 | 
19 | CCNC(=O)c1cc(-c2ncnc(Nc3ccc(C)c(Cl)c3)n2)ccn1 [B231] | 3.55 | 
20 | CCC(C)NC(=O)c1cc(-c2ncnc(Nc3ccc(C)c(Cl)c3)n2)ccn1 (stereo not shown) [B232] | 4.49 | 
21 | Cc1ccc(Nc2ncnc(-c3ccnc(C(=O)NCC4CC4)c3)n2)cc1Cl [B233] | 4.16 | 

Row | SMILES | logP | chromatographic logP
22 | Cc1ccc(Nc2ncnc(-c3ccnc(C(=O)NC4CCC4)c3)n2)cc1Cl [B234] | 4.29 | 
23 | CCCC(C)NC(=O)c1cc(-c2ncnc(Nc3ccc(C)c(Cl)c3)n2)ccn1 (stereo not shown) [B235] | 5 | 
24 | COCc1cccc(Nc2ncnc(-c3ccnc(C(=O)N(C)C(COC)C4CC4)c3)n2)c1 (stereo not shown) [B251] | 2.69 | 
25 | CC(C)N(C)C(=O)c1cc(-c2ncnc(Nc3cccc(OC(F)(F)F)c3)n2)ccn1 [B269] | 3.29 | 
26 | CC(=O)Nc1cccc(Nc2ncnc(-c3ccnc(C(=O)N(C)CCC#N)c3)n2)c1 [B304] | 2.08 | 
27 | CC(=O)Nc1cccc(Nc2ncnc(-c3ccnc(C(=O)N(C)CC4CC4)c3)n2)c1 [B306] | 1.94 | 
28 | CC(=O)Nc1cccc(Nc2ncnc(-c3ccnc(C(=O)N(C)C(C)C)c3)n2)c1 [B309] | 1.81 | 
29 | NC(=S)c1cc(-c2ncnc(Nc3cccc(C(F)F)c3)n2)ccn1 [B320] | 3.05 | 
30 | NC(=S)c1cc(-c2ncnc(Nc3cccc(F)c3)n2)ccn1 [B321] | 2.57 | 
31 | NC(=S)c1cc(-c2ncnc(Nc3ccc(F)cc3)n2)ccn1 [B322] | 2.47 | 
32 | CCCNC(=O)c1cc(-c2ncnc(Nc3cccc(F)c3)n2)ccn1 [B323] | 3.17 | 
33 | NC(=O)c1cc(-c2ncnc(Nc3cccc(F)c3)n2)ccn1 [B324] | 2.09 | 
34 | C=CCNC(=O)c1cc(-c2ncnc(Nc3cccc(F)c3)n2)ccn1 [B325] | 3.08 | 
35 | C#CCN(c1cccc(F)c1)c1ncnc(-c2ccnc(C(=S)N(C)CC)c2)n1 [B345] | 3.25 | 
36 | CCN(CC)C(=O)c1cc(-c2ncnc(Nc3ccc(F)c(F)c3)n2)ccn1 [B351] | 2.88 | 
37 | CC(C)N(C)C(=O)c1cc(-c2ncnc(Nc3cccc(C(F)(F)F)c3)n2)ccn1 [B360] | 3.15 | 
38 | C#CCN(c1cccc(Cl)c1)c1ncnc(-c2ccnc(C(=O)N(C)CCC#N)c2)n1 [B403] | 2.77 | 
39 | O=C(O)c1cc(-c2ncnc(Nc3cccc(Cl)c3)n2)ccn1 [B404] | 2.11 | 
40 | COC(=O)c1cc(-c2ncnc(Nc3cccc(C(F)F)c3)n2)ccn1 [B406] | 2.55 | 
41 | O=C(O)c1cc(-c2ncnc(Nc3cccc(C(F)F)c3)n2)ccn1 [B407] | 1.98 | 
42 | CCN(C)C(=O)c1cc(-c2ncnc(Nc3cccc(OC(F)F)c3)n2)ccn1 [B409] | 2.57 | 

Row | SMILES | logP | chromatographic logP
43 | CN(CC1CC1)C(=O)c1cc(-c2ncnc(Nc3cccc(OC(F)F)c3)n2)ccn1 [B410] | 2.98 | 
44 | CN(CC1CC1)C(=O)c1cc(-c2ncnc(Nc3ccc(F)c(C(F)F)c3)n2)ccn1 [B411] | 2.98 | 
45 | CON(C)C(=O)c1cc(-c2ncnc(Nc3cccc(C(F)F)c3)n2)ccn1 [B412] | 2.34 | 
46 | CCN(OC)C(=O)c1cc(-c2ncnc(Nc3cccc(C(F)F)c3)n2)ccn1 [B413] | 2.64 | 
47 | CCON(CC)C(=O)c1cc(-c2ncnc(Nc3cccc(C(F)F)c3)n2)ccn1 [B414] | 2.88 | 
48 | CCON(C)C(=O)c1cc(-c2ncnc(Nc3cccc(C(F)F)c3)n2)ccn1 [B415] | 2.57 | 
49 | COC(=O)c1cc(-c2ncnc(Nc3ccc(F)c(OC)c3)n2)ccn1 [B416] | 2.43 | 
50 | COC(=O)c1cc(-c2ncnc(Nc3ccc(Cl)c(OC)c3)n2)ccn1 [B417] | 2.80 | 
51 | COC(=O)c1cc(-c2ncnc(Nc3ccc(OC)c(F)c3)n2)ccn1 [B418] | 2.37 | 
52 | COC(=O)c1cc(-c2ncnc(Nc3ccc(C)c(Cl)c3)n2)ccn1 [B419] | 3.17 | 
53 | C#CCN(CC)C(=O)c1cc(-c2ncnc(Nc3cccc(C(F)F)c3)n2)ccn1 [B420] | 2.86 | 
54 | COC(=O)c1cc(-c2ncnc(Nc3ccc(Br)c(OC)c3)n2)ccn1 [B421] | 2.90 | 
55 | CN(C)C(=S)c1cc(-c2ncnc(Nc3cccc(C(F)F)c3)n2)ccn1 [B423] | 2.66 | 
56 | CCN(C)C(=S)c1cc(-c2ncnc(Nc3cccc(OC(F)F)c3)n2)ccn1 [B424] | 3.06 | 
57 | CCOC(=O)c1cc(-c2ccnc(Nc3ccc(OC)nc3)n2)ccn1 [Example A1, ethyl 4-{2-[(6-methoxypyridin-3-yl)amino]-pyrimidin-4-yl}pyridine-2-carboxylate] |  | 1.1
58 | O=C(c1cc(-c2ccnc(Nc3ccnc(Cl)c3)n2)ccn1)N1CC=CCC1 [Example A2] | 2.2 | 
59 | O=C(c1cc(Nc2nccc(-c3ccnc(C(=O)N4CC=CCC4)c3)n2)ccn1)N1CC=CCC1 [Example A3] | 1.6 | 
60 | COCCN(C)C(=O)c1cc(Nc2nccc(-c3ccnc(C(=O)N(C)CCOC)c3)n2)ccn1 [Example A4] | 1.1 | 
61 | O=C(c1cc(-c2ccnc(Nc3ccnc(Cl)c3)n2)ccn1)N1CCCCC1 [Example A5] | 2.23 | 
62 | O=C(c1cc(Nc2nccc(-c3ccnc(C(=O)N4CCCCC4)c3)n2)ccn1)N1CCCCC1 [Example A6] | 1.63 | 
63 | O=C(c1cc(-c2ccnc(Nc3ccnc(Cl)c3)n2)ccn1)N1CCCC1 [Example A7] | 2.08 | 

Row | SMILES | logP | chromatographic logP
64 | O=C(c1cc(Nc2nccc(-c3ccnc(C(=O)N4CCCC4)c3)n2)ccn1)N1CCCC1 [Example A8] | 1.37 | 
65 | O=C(c1cc(-c2ccnc(Nc3ccnc(Cl)c3)n2)ccn1)N1CCCC(CO)C1 (stereo not shown) [Example A9] | 1.69 | 
66 | CCCN(CCO)C(=O)c1cc(-c2ccnc(Nc3ccnc(Cl)c3)n2)ccn1 [Example A10] | 1.84 | 
67 | CCCN(CCC)C(=O)c1cc(Nc2nccc(-c3ccnc(C(=O)N(CCC)CCC)c3)n2)ccn1 [Example A12] | 2.54 | 
68 | CCCN(C)C(=O)c1cc(-c2ccnc(Nc3ccnc(Cl)c3)n2)ccn1 [Example A13] | 2.2 | 
69 | CCCN(C)C(=O)c1cc(Nc2nccc(-c3ccnc(C(=O)N(C)CCC)c3)n2)ccn1 [Example A14] | 1.59 | 
70 | CN(CC1CCCO1)C(=O)c1cc(-c2ccnc(Nc3ccnc(Cl)c3)n2)ccn1 (stereo not shown) [Example A15] | 1.99 | 
71 | CN(CC1CCCO1)C(=O)c1cc(Nc2nccc(-c3ccnc(C(=O)N(C)CC4CCCO4)c3)n2)ccn1 (stereo not shown) [Example A16] | 1.35 | 
72 | CCN(C)C(=O)c1cc(-c2ccnc(Nc3ccnc(Cl)c3)n2)ccn1 [Example A17, 4-{2-[(2-chloropyridin-4-yl)amino]pyrimidin-4-yl}-N-ethyl-N-methylpyridine-2-carboxamide] |  | 1.91
73 | CCN(C)C(=O)c1cc(-c2ccnc(Nc3ccnc(C(F)(F)F)c3)n2)ccn1 [Example A18] | 2.22 | 
74 | CCN(C)C(=O)c1cc(Nc2nccc(-c3ccnc(C(=O)N(C)CC)c3)n2)ccn1 [Example A19, N-ethyl-4-[2-({2-[ethyl(methyl)carbamoyl]pyridin-4-yl}amino)pyrimidin-4-yl]-N-methylpyridine-2-carboxamide] |  | 1.19
75 | O=C(NCCCN1CCCCCC1=O)c1cc(-c2ccnc(Nc3ccnc(Cl)c3)n2)ccn1 [Example A20] | 2.33 | 
76 | O=C(NCCCN1CCCCCC1=O)c1cc(Nc2nccc(-c3ccnc(C(=O)NCCCN4CCCCCC4=O)c3)n2)ccn1 [Example A21] | 2.33 | 
77 | O=C(c1cc(-c2ccnc(Nc3ccnc(Cl)c3)n2)ccn1)N1CCOCC1 [Example A22] | 1.69 | 
78 | O=C(c1cc(Nc2nccc(-c3ccnc(C(=O)N4CCOCC4)c3)n2)ccn1)N1CCOCC1 [Example A23] | 0.92 | 
79 | CN(CCC#N)C(=O)c1cc(-c2ccnc(Nc3ccnc(Cl)c3)n2)ccn1 [Example A24] | 1.78 | 
80 | C=CCN(C)C(=O)c1cc(-c2ccnc(Nc3ccnc(Cl)c3)n2)ccn1 [Example A25] | 2.13 | 
81 | CCCN(CC)C(=O)c1cc(-c2ccnc(Nc3ccnc(Cl)c3)n2)ccn1 [Example A26] | 2.51 | 
82 | CCN(CC)C(=O)c1cc(-c2ccnc(Nc3ccnc(Cl)c3)n2)ccn1 [Example A27] | 2.17 | 

Same assay, conditions: pH 7.8

Row | SMILES | logP
83 | NC(=O)c1cc(-c2ncnc(Nc3cccc(C(F)F)c3)n2)ccn1 [B405] | 2.04^[c]
84 | COC(=O)c1cc(-c2ncnc(Nc3ccc(OC)c(OC)c3)n2)ccn1 [B422] | 2.02^[c]
85 | CCCN(CCC)C(=O)c1cc(-c2ccnc(Nc3ccnc(Cl)c3)n2)ccn1 [Example A11] | 2.88^[c]

Reference: patent publication US20110218188A1, “SUBSTITUTED (PYRIDYL)-AZINYLAMINE DERIVATIVES AS FUNGICIDES” (priority 2008, published 2011)
